Test results taken from patent US20240262844A1, “PYRIDINIUM SALTS AND METHODS OF USE” (UNIVERSITY OF WYOMING, priority 2023, published 2024).
Counter-ions that a name gives are not always drawn.

Tests used:
[1] = molecular target: T1, recombinant NPM1 C-terminal domain (residues 240-294) (Homo sapiens, UniProt P06748); test: In vitro NPM1 C-terminal domain labeling (Western); assay type: biochemical
T1 construct: made in house; host or cells: NiCo21(DE3) E. coli
From the text: NPM1 Construct design: NPM1 residues 240-294 corresponding to the C-terminal DNA binding domain were fused to a combined 6×His-maltose binding protein (MBP) solubility tag on the N-terminus. An HRV 3C protease cleavage sequence (LEVLFQ/GP) was placed between the tags and NPM1 sequence and upon cleavage the remaining GP sequence corresponds to the NPM1 240-241 residues resulting in a natural peptide sequence without additional residues.
In vitro NPM1 C-terminal domain labeling and characterization: Labeling of recombinant NPM1 with the pyridinium salt 2b was performed with the following conditions: 10 μM NPM1 was treated with DMSO or 100 μM pyridinium salt 2b (2% DMSO) in 50 mM HEPES pH 7.5, 150 mM NaCl, 1.5 mM MgCl2, and 100 μM glutathione (GSH). Samples were irradiated at 450 nm (Kessil PR160L-440) at 100% intensity for 15 minutes at room temperature or 50° C. The reaction mixture was quenched with the addition of 4X LDS buffer (Invitrogen) containing 10 mM DTT (Pierce) and boiled for 10 minutes before resolving proteins on 4-12% Bis-Tris NuPAGE gels (Invitrogen), transferred onto a Trans-Blot Turbo Mini 0.2 μm nitrocellulose membrane (BioRad), blocked with 5% BSA in tris-buffered saline with Tween-20 (TBST), and incubated with HRP-linked anti-biotin (Cell Signaling Technology, #7075).

[2] = molecular target: T2, PARP1 (Homo sapiens, UniProt P09874); test: In-situ labeling and enrichment of PARP1 in HEK293T cells (MS-MS, Western); assay type: cell-based
T2 construct: endogenous in cells; host or cells: HEK293T
T2 sequence (P09874 whole entry): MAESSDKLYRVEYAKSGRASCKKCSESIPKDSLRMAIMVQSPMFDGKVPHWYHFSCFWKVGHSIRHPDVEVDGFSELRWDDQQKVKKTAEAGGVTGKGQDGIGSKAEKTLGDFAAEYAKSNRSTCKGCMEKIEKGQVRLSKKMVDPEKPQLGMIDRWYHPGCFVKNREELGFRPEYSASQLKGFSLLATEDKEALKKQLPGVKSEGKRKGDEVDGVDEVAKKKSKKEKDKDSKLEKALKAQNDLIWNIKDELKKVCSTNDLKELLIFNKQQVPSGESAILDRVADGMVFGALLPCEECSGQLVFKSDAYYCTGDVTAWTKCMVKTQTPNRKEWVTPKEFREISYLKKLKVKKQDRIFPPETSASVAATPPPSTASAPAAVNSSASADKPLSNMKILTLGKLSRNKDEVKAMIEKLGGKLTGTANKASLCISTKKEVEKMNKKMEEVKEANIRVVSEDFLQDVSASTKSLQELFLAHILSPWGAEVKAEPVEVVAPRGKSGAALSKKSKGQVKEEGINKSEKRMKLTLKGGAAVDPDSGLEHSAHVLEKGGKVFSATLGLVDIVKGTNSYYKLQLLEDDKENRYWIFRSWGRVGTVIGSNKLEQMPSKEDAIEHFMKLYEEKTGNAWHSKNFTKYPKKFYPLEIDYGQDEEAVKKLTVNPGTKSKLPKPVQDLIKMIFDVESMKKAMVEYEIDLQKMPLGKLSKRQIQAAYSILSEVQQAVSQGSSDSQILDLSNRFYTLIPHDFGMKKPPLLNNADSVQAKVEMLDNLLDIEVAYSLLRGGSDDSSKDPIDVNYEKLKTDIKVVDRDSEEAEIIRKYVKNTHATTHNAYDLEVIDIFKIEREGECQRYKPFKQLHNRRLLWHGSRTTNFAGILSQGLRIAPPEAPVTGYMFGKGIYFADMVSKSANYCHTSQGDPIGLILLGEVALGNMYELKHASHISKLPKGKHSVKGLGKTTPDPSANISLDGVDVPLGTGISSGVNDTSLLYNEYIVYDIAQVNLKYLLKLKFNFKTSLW
Protocol: Cell culture and in-situ tryptophan probe treatment: Cell lines were cultured at 37° C. with 5% C02. Human embryonic kidney 293 cells expressing a mutant version of the SV40 large T antigen (HEKT293T cells) were grown in Dulbecco's Modified Eagle Medium (DMEM, Gibco) supplemented with 10% fetal bovine serum and 1% penicillin/streptomycin. For in-situ labeling, cells were grown to 90% confluence, washed with Dulbecco's phosphate buffered saline (DPBS), treated with 100x stocks of the tryptophan probes (the pyridinium salts) in OptiMem (GibCo) to generate final concentrations (0 μM, 1 μM, 10 μM, and 100 μM) in 1% dimethylsulfoxide (DMSO). Cells were incubated for 1 hour at 37° C. with 5% C02 followed by photo-activation at the respective wavelengths for 20 minutes at 4° C. Cells were harvested with a cell scraper, washed 3× with DPBS, and pellets were stored at −80° C. until further use. […]
In-situ tryptophan probe sample processing for peptide-level characterization: Cell pellets were lysed via sonication (QSonica) at 50% amplitude, 2 seconds ON, 3 seconds OFF, 30 seconds in 40 mM HEPES pH 7.5 (4-(2-hydroxyethyl)-1-piperazineethanesulfonic acid), 1.5 mM magnesium chloride (MgCl2), 1% Sodium dodecyl sulfate (SDS), 0.8% NP-40 (also known as nonyl phenoxypolyethoxylethanol), and 1x protease inhibitors (Thermo). Protein concentration was determined by BCA (Pierce). […]

T1 sequence (P06748 240-294): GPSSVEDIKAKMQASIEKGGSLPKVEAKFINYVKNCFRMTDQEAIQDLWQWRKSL

| labeling of the construct (Western analysis) ([1]; 10 μM NPM1, 100 μM probe, 100 μM glutathione, about 440 nm, about 15 minutes) | temperature dependence of labeling ([1]; labeling at about 50° C. versus room temperature) | modified and dose-dependently enriched tryptophan residues ([2]; chemoproteomic profiling, HEK293T cells) | PARP1 in enriched protein mixture (Western analysis) ([2]; cultures irradiated with blue light in the presence of probe, protein-level enrichment) | SMILES |
| --- | --- | --- | --- | --- |
| photo-dependent labeling | higher level of labeling |  |  | COc1ccc2cc(-c3cc(C)[n+](N(C)C(=O)OCCCCC[C@H]4SC[C@H]5NC(=O)N[C@H]54)c(C)c3)ccc2c1 (stereo in doubt) [Pyridinium salt 2b, 4-(6-methoxynaphthalen-2-yl)-2,6-dimethyl-1-(methyl(((5-((3aR,4R,6aS)-2-oxohexahydro-1H-thieno[3,4-d]imidazol-4-yl)pentyl)oxy)carbonyl)amino)pyridin-1-ium tetrafluoroborate] |
|  |  | Trp79 and Trp318 | found to contain both proteins | COc1ccc2cc(-c3cc(C)[n+](N(C)C(=O)OCCCCCCN=[N+]=[N-])c(C)c3)ccc2c1 [Pyridinium salt 2d, 1-((((6-azidohexyl)oxy)carbonyl)(methyl)amino)-4-(6-methoxynaphthalen-2-yl)-2,6-dimethylpyridin-1-ium tetrafluoroborate] |
